The record followed here is ChEMBL document CHEMBL3132769, “Fragment growing to retain or alter the selectivity of anchored kinase hinge-binding fragments” (Medchemcomm, 2014).

The target in assay [1] is T1, Serine/threonine-protein kinase BRSK2 (Homo sapiens) (UniProt Q8IWQ3).
T1 sequence (whole entry): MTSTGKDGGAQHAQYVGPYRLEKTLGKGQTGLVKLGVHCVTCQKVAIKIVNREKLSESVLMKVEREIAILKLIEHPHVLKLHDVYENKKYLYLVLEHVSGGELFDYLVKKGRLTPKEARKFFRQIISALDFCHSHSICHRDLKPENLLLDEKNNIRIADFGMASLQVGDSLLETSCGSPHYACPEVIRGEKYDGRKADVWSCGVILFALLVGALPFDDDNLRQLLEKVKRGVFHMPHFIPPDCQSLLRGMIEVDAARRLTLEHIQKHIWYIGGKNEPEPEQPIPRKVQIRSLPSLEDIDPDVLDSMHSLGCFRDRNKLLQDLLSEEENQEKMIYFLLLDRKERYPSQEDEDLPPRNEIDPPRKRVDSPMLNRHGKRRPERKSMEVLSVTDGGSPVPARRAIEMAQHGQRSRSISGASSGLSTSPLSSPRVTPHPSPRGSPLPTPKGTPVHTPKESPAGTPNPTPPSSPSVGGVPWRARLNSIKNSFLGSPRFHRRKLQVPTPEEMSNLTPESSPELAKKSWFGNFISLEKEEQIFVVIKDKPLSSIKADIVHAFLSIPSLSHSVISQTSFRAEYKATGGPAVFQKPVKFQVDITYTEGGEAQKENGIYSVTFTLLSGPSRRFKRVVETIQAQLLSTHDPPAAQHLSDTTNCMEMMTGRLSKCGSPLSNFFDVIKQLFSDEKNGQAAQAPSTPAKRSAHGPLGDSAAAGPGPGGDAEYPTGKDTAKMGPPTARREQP
As to the kind of experiment: Inhibition of human truncated BRSK2 expressed in baculovirus assessed as substrate phosphorylation using fluorescence-labelled peptides as substrate at 2 uM after 90 mins by microfluidic peptide phosphorylation assay.

For assay [2], the target named is T2, Serine/threonine-protein kinase D1 (Homo sapiens) (UniProt Q15139).
T2 sequence (whole entry): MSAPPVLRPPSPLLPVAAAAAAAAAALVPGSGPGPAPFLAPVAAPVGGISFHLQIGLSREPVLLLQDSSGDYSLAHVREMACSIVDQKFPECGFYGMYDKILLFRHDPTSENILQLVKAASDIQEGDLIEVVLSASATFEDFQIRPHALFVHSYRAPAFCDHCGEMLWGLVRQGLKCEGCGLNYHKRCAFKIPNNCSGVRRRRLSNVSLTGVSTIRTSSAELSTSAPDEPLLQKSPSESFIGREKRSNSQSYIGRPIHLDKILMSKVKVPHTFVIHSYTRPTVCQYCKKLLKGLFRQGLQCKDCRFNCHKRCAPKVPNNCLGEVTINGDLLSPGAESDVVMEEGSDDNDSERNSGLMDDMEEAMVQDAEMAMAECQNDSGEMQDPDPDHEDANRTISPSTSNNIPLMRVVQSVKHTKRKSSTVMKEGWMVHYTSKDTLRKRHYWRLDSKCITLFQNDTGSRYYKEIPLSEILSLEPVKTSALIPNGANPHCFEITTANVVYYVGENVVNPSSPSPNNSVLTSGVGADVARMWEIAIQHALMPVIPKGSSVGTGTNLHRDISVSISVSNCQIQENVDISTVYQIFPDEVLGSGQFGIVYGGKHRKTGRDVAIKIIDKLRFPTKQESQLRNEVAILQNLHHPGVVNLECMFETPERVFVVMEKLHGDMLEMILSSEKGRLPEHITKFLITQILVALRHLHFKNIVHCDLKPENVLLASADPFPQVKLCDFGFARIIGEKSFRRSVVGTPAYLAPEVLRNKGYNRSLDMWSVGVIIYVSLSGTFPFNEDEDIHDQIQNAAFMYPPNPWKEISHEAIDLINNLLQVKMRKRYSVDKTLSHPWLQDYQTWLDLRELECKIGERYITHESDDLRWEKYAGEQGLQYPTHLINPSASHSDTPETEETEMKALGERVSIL
As to the kind of experiment: Inhibition of human full length PKD1 expressed in baculovirus assessed as substrate phosphorylation using fluorescence-labelled peptides as substrate at 0.1 uM after 90 mins by microfluidic peptide phosphorylation assay.

For assay [3], the target named is Ribosomal protein S6 kinase alpha-2 (Homo sapiens) (UniProt Q15349). The assay can be described thus: Inhibition of human full length RSK3 expressed in baculovirus assessed as substrate phosphorylation using fluorescence-labelled peptides as substrate at 9 uM after 90 mins by microfluidic peptide phosphorylation assay.
Sequence of Ribosomal protein S6 kinase alpha-2 (Homo sapiens) (Q15349 whole entry): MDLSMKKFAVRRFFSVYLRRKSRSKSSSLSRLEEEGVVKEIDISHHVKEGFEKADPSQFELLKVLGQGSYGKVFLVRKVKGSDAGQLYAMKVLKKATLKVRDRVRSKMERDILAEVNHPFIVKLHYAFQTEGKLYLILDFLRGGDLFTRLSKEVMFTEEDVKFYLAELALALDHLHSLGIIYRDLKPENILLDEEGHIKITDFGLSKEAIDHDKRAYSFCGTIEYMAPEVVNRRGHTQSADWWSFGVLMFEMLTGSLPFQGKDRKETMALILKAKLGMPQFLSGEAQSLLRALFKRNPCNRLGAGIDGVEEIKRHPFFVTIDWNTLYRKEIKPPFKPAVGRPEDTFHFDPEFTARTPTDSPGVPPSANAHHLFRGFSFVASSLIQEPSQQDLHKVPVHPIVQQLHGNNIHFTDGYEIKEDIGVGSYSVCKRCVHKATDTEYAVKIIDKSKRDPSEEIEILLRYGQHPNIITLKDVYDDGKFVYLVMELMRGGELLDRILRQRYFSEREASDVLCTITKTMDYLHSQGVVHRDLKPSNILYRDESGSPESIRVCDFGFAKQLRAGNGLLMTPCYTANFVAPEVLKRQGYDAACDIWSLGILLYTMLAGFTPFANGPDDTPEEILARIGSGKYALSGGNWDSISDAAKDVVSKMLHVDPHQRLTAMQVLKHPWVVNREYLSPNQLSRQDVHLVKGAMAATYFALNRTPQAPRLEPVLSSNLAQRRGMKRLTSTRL
Assay [4] deals with Mitogen-activated protein kinase 3 (Homo sapiens) (UniProt P27361). As to the kind of experiment: Inhibition of human full length ERK1 expressed in Escherichia coli cell assessed as substrate phosphorylation using fluorescence-labelled peptides as substrate at 95 uM after 90 mins by microfluidic peptide phosphorylation assay.
Sequence of Mitogen-activated protein kinase 3 (Homo sapiens) (P27361 whole entry): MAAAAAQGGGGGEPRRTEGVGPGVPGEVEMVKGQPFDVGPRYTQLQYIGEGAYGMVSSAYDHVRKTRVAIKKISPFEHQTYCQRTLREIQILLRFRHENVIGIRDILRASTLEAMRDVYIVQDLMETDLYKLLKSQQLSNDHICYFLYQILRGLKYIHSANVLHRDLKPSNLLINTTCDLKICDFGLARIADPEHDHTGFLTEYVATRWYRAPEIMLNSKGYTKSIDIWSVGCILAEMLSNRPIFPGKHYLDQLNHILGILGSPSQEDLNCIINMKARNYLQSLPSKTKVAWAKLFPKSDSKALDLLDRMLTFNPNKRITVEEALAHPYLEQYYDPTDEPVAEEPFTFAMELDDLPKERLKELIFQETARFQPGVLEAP
In assay [5] the target is T3, Inhibitor of nuclear factor kappa-B kinase subunit beta (Homo sapiens) (UniProt O14920).
T3 sequence (whole entry): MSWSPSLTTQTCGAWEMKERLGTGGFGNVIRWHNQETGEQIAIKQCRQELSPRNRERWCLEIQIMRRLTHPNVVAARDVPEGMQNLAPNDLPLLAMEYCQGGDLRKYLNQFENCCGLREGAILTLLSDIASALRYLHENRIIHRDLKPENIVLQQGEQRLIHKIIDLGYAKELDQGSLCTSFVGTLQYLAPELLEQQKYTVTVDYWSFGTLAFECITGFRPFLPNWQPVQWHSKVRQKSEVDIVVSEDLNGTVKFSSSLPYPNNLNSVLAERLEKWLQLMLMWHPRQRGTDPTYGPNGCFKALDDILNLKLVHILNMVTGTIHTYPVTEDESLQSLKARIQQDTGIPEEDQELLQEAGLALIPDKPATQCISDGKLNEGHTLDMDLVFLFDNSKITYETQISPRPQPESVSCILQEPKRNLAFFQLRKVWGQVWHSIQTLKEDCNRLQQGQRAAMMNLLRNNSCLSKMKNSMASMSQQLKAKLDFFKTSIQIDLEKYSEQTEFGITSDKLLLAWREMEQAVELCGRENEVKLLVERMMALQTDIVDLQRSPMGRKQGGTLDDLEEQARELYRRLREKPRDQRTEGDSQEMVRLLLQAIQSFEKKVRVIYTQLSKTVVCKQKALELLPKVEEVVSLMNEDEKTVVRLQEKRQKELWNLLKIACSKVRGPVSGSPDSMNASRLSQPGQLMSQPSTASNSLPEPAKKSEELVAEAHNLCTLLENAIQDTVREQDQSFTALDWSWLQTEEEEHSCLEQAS
As to the kind of experiment: Inhibition of human full length IKK beta expressed in baculovirus assessed as substrate phosphorylation using fluorescence-labelled peptides as substrate at 95 uM after 90 mins by microfluidic peptide phosphorylation assay.

Assay [6] addresses MAP kinase p38 (Homo sapiens) (UniProt O15264+Q15759+Q16539+P53778). The assay can be described thus: Inhibition of human full length p38 beta2 expressed in Escherichia coli cell assessed as substrate phosphorylation using fluorescence-labelled peptides as substrate at […] after 90 mins by microfluidic peptide phosphorylation assay.
The target of assay [7] is Serine/threonine-protein kinase pim-1 (Homo sapiens) (UniProt P11309). As to the kind of experiment: Inhibition of human full length PIM1 expressed in baculovirus assessed as substrate phosphorylation using fluorescence-labelled peptides as substrate at 1000 uM after 90 mins by microfluidic peptide phosphorylation assay.
Sequence of Serine/threonine-protein kinase pim-1 (Homo sapiens) (P11309 whole entry, looked up): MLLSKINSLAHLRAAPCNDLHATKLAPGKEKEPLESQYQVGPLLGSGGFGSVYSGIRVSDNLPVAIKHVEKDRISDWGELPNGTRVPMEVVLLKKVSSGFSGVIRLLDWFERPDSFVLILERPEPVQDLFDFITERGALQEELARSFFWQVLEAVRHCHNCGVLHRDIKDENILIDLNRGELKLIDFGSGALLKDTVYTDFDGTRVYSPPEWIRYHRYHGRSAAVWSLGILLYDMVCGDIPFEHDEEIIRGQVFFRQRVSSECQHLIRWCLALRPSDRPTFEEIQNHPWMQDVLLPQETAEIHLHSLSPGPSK

Usually inhibition stands for how much of the control response was suppressed. With `NC1CCN(c2ncnc3[nH]ccc23)CC1`, in assay [1], the inhibition was 2.5%. As for `C[C@H](CN(C)C)Oc1nc(Nc2cc3cccc(Cl)c3cn2)cnc1C#N`, the inhibition in assay [2] worked out at 5%. `NCC1CN(c2ncnc3[nH]c4cnccc4c23)CCO1` (configuration not stated): the inhibition in assay [3] stood at 95.5%. `NCCc1ccc(-c2ncnc3[nH]cnc23)cc1`: the values for the inhibition in assay [4] and in assay [5] were 59% and 91%, respectively. For `COC(=O)c1cnc(Nc2cnc(C#N)cn2)cc1NCC1CCNCC1`, the inhibition in assay [6] was determined as 1%.

As for `c1cnc2[nH]ccc2c1`, the inhibition in assay [7] was 20%.
